Converted amounts (≈) assume the structure as drawn. *1 amine or outer side, *2 acyl side, *3 side chain or, on linkers, in order; H or OH if unused. Where a SMILES comes first, the peptide text is derived from it. Bridges are numbered along the chain shown (N, C = ends). [ ]: non-standard residue; d: D form. The star is where a group is joined. ξ: configuration not given here. ξOrn(4,5-diOH) = O=C(C(CC(O)C(O)N[*:3])N[*:1])[*:2]; ξhTyr(βξ-OH,γξ-OH) = NC(C(=O)O)C(O)C(O)c1ccc(O)cc1; ξPro(3ξ-OH,4ξ-Me) = CC1CNC(C(=O)O)C1O; Palmitoyl = CCCCCCCCCCCCCCCC(=O)*; Hyp = O=C(O)[CH]1C[CH](O)CN1
Columns and labels:
[1] = test system: S. cerevisiae haploid strain with the insertion-deletion allele (fks1-5::HIS3 / fks1-6::HIS3); test: phenotype of haploid strain with FKS1 insertion-deletion allele; type: cell-based, Saccharomyces cerevisiae
Text: An insertion-deletion allele of the fks1-1 complementing DNA was created in the following manner. The 8.8-kb SphI-PstI fragment of pFF133 was inserted between the SphI and PstI sites of the polylinker of the E. coli vector pGEM-5Zf(+) (Promega, Madison, Wis.) giving plasmid pFF174. The 1.3-kb BamHI-XhoI HIS3 fragment from plasmid pJJ215 (J. S. Jones and L. Prakash, Yeast, 6:363-366 (1990)) was inserted by blunt-end ligation (see Current Protocols, p. 3.5.10) between the two KpnI sites of plasmid pFF174 giving plasmids pFF186 (sense orientation) and pFF187 (antisense orientation). The 6.6-kb insertion-deletion fragments were excised by digestion with SstI+SphI and purified by agarose gel electrophoresis. The insertion-deletion mutation was created by one-step gene replacement (see R. Rothstein, GYG, pp. 281-301). This disruption was confirmed by Southern blot hybridization analysis of genomic DNA digested with PstI and probed with the 8.8-kb SphI-PstI fragment from plasmid pFF174. The undisrupted parent gives a single 9.8-kb genomic fragment which hybridizes with the probe. A disruption mutant in which HIS3 is inserted in the sense orientation, for example YFF2409, gives 3.9- and 3.7-kb fragments, while an antisense disruption mutant, for example YFF2411, gives 4.9- and 2.7-kb fragments. […]

[2] = test system: S. cerevisiae YFK007 (wild type); test: primary screen, zone size on agar; type: cell-based, Saccharomyces cerevisiae; conditions: 20 ng FK506, 10 mcg CsA, 10 mcg L733,560, 20 mcg aculeacin, 20 mcg papulacandin, 48 h
Method: (§1) Each strain is grown at 28°-30° C. in YPAD/10 mM CaCl2 medium with shaking at 220 rpm (to mid or late log phase). The cultures are diluted 1:10 with water, and the OD values of the dilutions are measured at 600 nm (against a blank of YPAD/10 mM CaCl2 similarly diluted 1:10 in water). The OD value is multiplied by 10 to estimate the OD of the culture. Portions (100 ml) of YPAD/10 mM CaCl2 medium containing 1.5% agar, equilibrated at 45° C. in a water bath, are seeded with culture such that the final cell density in the agar would have an OD value of 0.015 (i.e., 3×10^6 cfu/ml; a sample calculation is provided below). The seeded agar is poured into 500 cm^2 Nunc plates. Once the agar plates have solidified, 10 mcL aliquots of samples containing test compounds, such as fermentation extracts, are dissolved in water, 100% methanol or ethanol, or up to 50% DMSO and are placed on each member of the two-plate set in 11 by 8 arrays.
(§2) The plates are incubated for 48 h at 28°-30° C. Diameters of the zones are read to the outermost edge and recorded in mm. The clarity of the zone is reported as clear (no designation), hazy (h), or very hazy (vh). Very hazy zones are best seen by viewing the plate under an elevated light placed between the assay dish and a dark wall.

[3] = test system: S. cerevisiae YFK532-7C (fks1-1); test: primary screen, zone size on agar; type: cell-based, Saccharomyces cerevisiae; conditions: 20 ng FK506, 10 mcg CsA, 10 mcg L733,560, 20 mcg aculeacin, 20 mcg papulacandin, 48 h
Method: as §1, §2

[4] = test system: S. cerevisiae YFK798 (fks1-1 + CN); test: primary screen, zone size on agar (calcineurin counter screen); type: cell-based, Saccharomyces cerevisiae; conditions: 20 ng FK506, 10 mcg CsA, 10 mcg L733,560, 20 mcg aculeacin, 20 mcg papulacandin, 48 h
Method: Counter screening strains were devised for identifying calcineurin inhibitors. Overexpression of yeast calcineurin in the fks1-1 mutant (strain YFK798) constitutes the most general of these. […] Glucan synthase inhibitors show neither effect and thus can be distinguished from calcineurin inhibitors.
as §1, §2

S. cerevisiae R560-1C = test: secondary screen, zone size on agar; type: cell-based, Saccharomyces cerevisiae; conditions: 20 ng FK506, 10 mcg CsA, 10 mcg L733,560, 20 mcg aculeacin, 20 mcg papulacandin
Method: (§3) For positively identifying glucan synthase inhibitors, screening with strain R560-1C and its parent W303-1A was instituted in a manner identical to that described for calcineurin inhibitors. Complete loss of a zone, or marked reduction in size, on R560-1C versus W303-1A indicates a glucan synthase inhibitor. No zones are seen with calcineurin inhibitors using this pair of strains.
as §1, §2

S. cerevisiae W303-1A = test: secondary screen, zone size on agar; type: cell-based, Saccharomyces cerevisiae; conditions: 20 ng FK506, 10 mcg CsA, 10 mcg L733,560, 20 mcg aculeacin, 20 mcg papulacandin
Method: as §3, §1, §2

[5] = test system: S. cerevisiae YFK532-7C (fks1-1) versus YFK007; test: sensitivity of fks1-1 mutant relative to FKS1 wild-type strain; type: cell-based, Saccharomyces cerevisiae; conditions: calcineurin inhibitors
S. cerevisiae MY2256 = test: MIC assay; type: cell-based; conditions: Saccharomyces cerevisiae, MY2256, 42 h
Method: (§4) The sensitivities of pcr1(fks2-1) fks1-1 and pcr1(fks2-1) FKS1 strains to L-733,560, L-636,947 (Aculeacin), and L-687,781 (Dihydropapulocandin) were determined in MIC assays. Briefly, strains were grown to stationary phase in 5.0 ml of liquid YPAD medium. MY2256 precultures were grown in liquid YPAD10Ca. MIC assays were performed in flat well microtiter plates in triplicate. Each well of the microtiter plate was filled with 100 mcL of YPAD medium. To the first well, 100 mcL of a 4× solution of drug in YPAD medium was added. To serve as a control, a stock solution of […] of YPAD was made. 100 mcL of this solution was added to the initial well for strains grown in the presence of solvent but the absence of drug. Two-fold serial dilutions of the drug were performed down the plate.
(§5) Cultures were diluted to 5×10^5 cells/ml in YPAD (1 OD660 =3.3×10^7 cells/ml). 100 mcL of diluted culture was added to each well, resuspended, and incubated at 28° C. After 42 hours, cultures were resuspended and cells densities measured in an SLT Laboratories 340 ATTC microtiter plate reader.

[6] = test system: S. cerevisiae YFK0931-07B; test: MIC assay; type: cell-based; conditions: Saccharomyces cerevisiae, YFK093107B, 42 h; YFK0931-07B; read-out: MIC
Method: as §4, §5

[7] = test system: S. cerevisiae FKS1 pcr1 spores; test: drug phenotype of segregants from tetrad analysis; type: cell-based, Saccharomyces cerevisiae
Text: YFK0996-11B (MATa fks1-1 pcr1) was also crossed to YFK0005 (MATalpha FKS1 PCR1). In this cross, the pcr1 and fks1-1 mutations segregate independently. In the 16 four-spore and 20 three-spore tetrads, the segregation pattern of 1 Parental Ditype: 1 Non Parental Ditype : 4 Tetratype tetrads is indicative of two unlinked genes. […] Strains MY2257 (also known as YFK1088-23B, MATa FKS1 +pcr1), MY2258 (also known as YFK1088-16D, MATalpha FKS1+pcr1), and YFK1088-02D (MATa FKS1 +pcr1) were segregants from this cross. As shown in the table below, these segregants contain the pcr1 mutation in a wild-type FKS1 background and lack plasmid pDL1 present in the original mutant.

[8] = test system: S. cerevisiae FKS1 pcr1 (fks2-1): MY2257, MY2258; test: MIC assay; type: cell-based, Saccharomyces cerevisiae; conditions: less than 10% growth, 42 hours
Method: as §4
as §5, with “reader. The MICs concentrations presented in the table below represent the concentrations of drug that result in less than 10% growth of the strain grown in the absence of drug.” for “reader.”

[9] = test system: S. cerevisiae fks1-1 PCR1 YFK0688-14B; test: MIC assay; type: cell-based, Saccharomyces cerevisiae; conditions: less than 10% growth of no-drug control, 42 hours, 28° C.
Method: as §4
as §5, with “reader. The MICs concentrations presented in the table below represent the concentrations of drug that result in less than 10% growth of the strain grown in the absence of drug.” for “reader.”

[10] = test system: S. cerevisiae fks1-1 pcr1 (fks2-1): MY2256, YFK0996-11B, MY2259, MY2260; test: MIC assay; type: cell-based, Saccharomyces cerevisiae; conditions: less than 10% growth, 42 hours
Method: as §4
as §5, with “reader. The MICs concentrations presented in the table below represent the concentrations of drug that result in less than 10% growth of the strain grown in the absence of drug.” for “reader.”

[11] = test system: S. cerevisiae wild type YFK0005; test: MIC assay; type: cell-based, Saccharomyces cerevisiae; conditions: less than 10% growth of no-drug control, 42 hours, 28° C.
Method: as §4
as §5, with “reader. The MICs concentrations presented in the table below represent the concentrations of drug that result in less than 10% growth of the strain grown in the absence of drug.” for “reader.”

C=CC[C@@H]1/C=C(\C)C[C@H](C)C[C@H](OC)[C@H]2O[C@@](O)(C(=O)C(=O)N3CCCC[C@H]3C(=O)O[C@H](/C(C)=C/[C@@H]3CC[C@@H](O)[C@H](OC)C3)[C@H](C)[C@@H](O)CC1=O)[C@H](C)C[C@@H]2OC [FK506]
drug sensitivity phenotype [1]: hypersensitive | Primary Screen Zone size (mm) [2]: none | Primary Screen Zone size (mm) [3]: 15-17 mm | Primary Screen Zone size (mm) [4]: 13 mm | Secondary Screen Zone size (mm) (S. cerevisiae R560-1C): none | Secondary Screen Zone size (mm) (S. cerevisiae W303-1A): none | sensitivity of YFK532-7C relative to YFK007 [5]: at least a thousand fold more sensitive | MIC (S. cerevisiae MY2256): 0.06 µg/mL (≈ 0.0746 µM) | MIC [6]: 0.03 µg/mL (≈ 0.0373 µM) | drug resistance phenotype of spores [7]: resistant

CCCCCCCCCCCCCCCC(=O)NC1CC(O)C(O)NC(=O)C2C(O)C(C)CN2C(=O)C(C(C)O)NC(=O)C(C(O)C(O)c2ccc(O)cc2)NC(=O)C2CC(O)CN2C(=O)C(C(C)O)NC1=O [L-636,947, aculeacin] (Palmitoyl-[ξOrn(4,5-diOH)]T[Hyp][ξhTyr(βξ-OH,γξ-OH)]T[ξPro(3ξ-OH,4ξ-Me)]; lactam 1-C; configuration not given here)
Primary Screen Zone size (mm) [2]: 22-24 mm | Primary Screen Zone size (mm) [3]: 27-30 mm | Primary Screen Zone size (mm) [4]: 27-30 mm | Secondary Screen Zone size (mm) (S. cerevisiae R560-1C): 17-20 mm | Secondary Screen Zone size (mm) (S. cerevisiae W303-1A): 18-22 mm | MIC [8]: > 40 µg/mL | MIC [9]: 0.5 µg/mL (≈ 0.483 µM) | MIC [10]: > 40 µg/mL | MIC [11]: 1 µg/mL (≈ 0.965 µM)

— patent US5821353A, “DNA encoding 1,3 beta-D glucan synthase subunits” (Merck & Co., Inc., priority 1996, dated 1998)
